Experimental data published in ChEMBL document CHEMBL5108027, “An unanticipated discovery of novel naphthalimidopropanediols as potential broad-spectrum antibacterial members” (Eur J Med Chem, 2022).
≈ marks a conversion by molar mass, not a printed value. Calls of active or inactive are those of the source. The calls are words filed in the database; no cut-off is given here.

How the values were obtained:
Staphylococcus aureus [1] = experiment: Antibacterial activity against methicillin-resistant Staphylococcus aureus N315 measured by Muller-Hinton broth based microdilution assay; format: functional
Enterococcus faecalis = experiment: Antibacterial activity against Enterococcus faecalis measured by Muller-Hinton broth based microdilution assay; format: functional
Staphylococcus aureus [2] = experiment: Antibacterial activity against Staphylococcus aureus measured by Muller-Hinton broth based microdilution assay; format: functional
Staphylococcus aureus [3] = experiment: Antibacterial activity against Staphylococcus aureus ATCC 25923 measured by Muller-Hinton broth based microdilution assay; format: functional
Staphylococcus aureus [4] = experiment: Antibacterial activity against Staphylococcus aureus ATCC 29213 measured by Muller-Hinton broth based microdilution assay; format: functional
Klebsiella pneumoniae = experiment: Antibacterial activity against Klebsiella pneumoniae measured by Muller-Hinton broth based microdilution assay; format: functional
Escherichia coli [5] = experiment: Antibacterial activity against Escherichia coli measured by Muller-Hinton broth based microdilution assay; format: functional
Pseudomonas aeruginosa [6] = experiment: Antibacterial activity against Pseudomonas aeruginosa measured by Muller-Hinton broth based microdilution assay; format: functional
Acinetobacter baumannii = experiment: Antibacterial activity against Acinetobacter baumannii measured by Muller-Hinton broth based microdilution assay; format: functional
Pseudomonas aeruginosa [7] = experiment: Antibacterial activity against Pseudomonas aeruginosa ATCC 27853 measured by Muller-Hinton broth based microdilution assay; format: functional
Escherichia coli [8] = experiment: Antibacterial activity against Escherichia coli ATCC 25922 measured by Muller-Hinton broth based microdilution assay; format: functional
[9] = Hemolytic activity in human RBC measured after 1 hr; format: toxicity, cell-based, Erythrocyte; settings: human red blood cells (erythrocytes)
[10] = Selectivity ratio of HC50 for hemolytic activity in human RBC to MIC for antibacterial activity against Staphylococcus aureus; format: toxicity; settings: human red blood cells (erythrocytes)
[11] = Hemolytic activity in human RBC assessed as hemolytic rate at 2 to 512 ug/ml and measured after 1 hr; format: toxicity, cell-based, Erythrocyte; settings: human red blood cells (erythrocytes), at 2 to 512 µg/mL, dose 2-512 µg/ml, read-out: Activity
Staphylococcus aureus [12] = experiment: Antibacterial activity against Staphylococcus aureus measured after 16 passages by resistance development assay; format: functional, organism-based
Staphylococcus aureus [13] = experiment: Inhibition of bacterial growth of Staphylococcus aureus at 1 to 2 times MIC; format: functional
Staphylococcus aureus [14] = experiment: Bactericidal activity against Staphylococcus aureus assessed as reduction in number of colonies at 0.5 to 2 times MIC measured within 6 hrs by time-kill assay; format: functional, organism-based
Staphylococcus aureus [15] = experiment: Induction of membrane depolarization in Staphylococcus aureus at 0.5 to 2 times MIC measured upto 1 hr by DiSC35 dye-based fluorescence assay; format: functional, organism-based
Staphylococcus aureus [16] = experiment: Induction of inner membrane permeabilization in Staphylococcus aureus by measuring increase in fluorescence intensity at 1 to 8 times MIC by calcein-AM/PI staining based fluorescence analysis; format: functional, organism-based
Staphylococcus aureus [17] = experiment: Disruption of membrane integrity in Staphylococcus aureus at 8 times MIC by calcein-AM/PI staining based fluorescence analysis; format: functional, organism-based
Staphylococcus aureus [18] = experiment: Disruption of membrane integrity in Staphylococcus aureus assessed as increase in nucleic acid leakage by measuring increase in absorbance 1 to 8 times MIC measured for 6 hrs by spectrophotometry; format: functional, organism-based
Staphylococcus aureus [19] = experiment: Disruption of membrane integrity in Staphylococcus aureus assessed as increase in protein leakage by measuring increase in absorbance 1 to 8 times MIC measured for 6 hrs by Bradford assay; format: functional, organism-based
Staphylococcus aureus [20] = experiment: Antibacterial activity against Staphylococcus aureus assessed as reduction in LDH activity at 1 to 8 times MIC measured after 6 hrs by microplate reader method; format: functional; set-up: scale not given: the % may be the effect or the level left
Staphylococcus aureus [21] = experiment: Induction of oxidative stress in Staphylococcus aureus assessed as increase in intracellular ROS level at 1 to 8 times MIC measured after 6 hrs by DCFH-DA staining method; format: functional, organism-based
Staphylococcus aureus [22] = experiment: Induction of oxidative stress in Staphylococcus aureus assessed as decrease in GSH activity at 1 to 8 times MIC measured after 6 hrs by Ellman's assay; format: functional, organism-based
Staphylococcus aureus [23] = experiment: Antibacterial activity against Staphylococcus aureus assessed as reduction in metabolic activity at 1 to 8 times MIC measured after 6 hrs by Alamar blue assay; format: functional, organism-based
Staphylococcus aureus [24] = experiment: Inhibition of biofilm formation in Staphylococcus aureus at 1 to 8 times MIC measured after 24 hrs by crystal violet staining method; format: functional, organism-based
Staphylococcus aureus [25] = experiment: Antibiofilm activity in Staphylococcus aureus at 1 to 8 times MIC measured by Alamar blue assay; format: functional, organism-based
L929 = experiment: Cytotoxicity against mouse L929 cells assessed as effect on cell growth at 0.25 to 0.5 ug/ml incubated for 24 hrs by MTT assay; format: toxicity, cell-based; settings: l929, 24 h, dose 0.25-0.5 µg/ml

Row | Compound | MIC (Staphylococcus aureus [1]) [µg/mL] | MIC (Enterococcus faecalis) [µg/mL] | MIC (Staphylococcus aureus [2]) [µg/mL] | MIC (Staphylococcus aureus [3]) [µg/mL] | MIC (Staphylococcus aureus [4]) [µg/mL] | MIC (Klebsiella pneumoniae) [µg/mL] | MIC (Escherichia coli [5]) [µg/mL] | MIC (Pseudomonas aeruginosa [6]) [µg/mL] | MIC (Acinetobacter baumannii) [µg/mL] | MIC (Pseudomonas aeruginosa [7]) [µg/mL] | MIC (Escherichia coli [8]) [µg/mL] | further results
1 | O=C1c2cccc3c(N/N=C/c4cccc(Cl)c4)ccc(c23)C(=O)N1C(CO)CO | 64 (≈ 151 µM) | 64 (≈ 151 µM) | 0.25 (≈ 0.59 µM) | 32 (≈ 75.5 µM) | 8 (≈ 18.9 µM) | 8 (≈ 18.9 µM) | 64 (≈ 151 µM) | 64 (≈ 151 µM) | 64 (≈ 151 µM) | 2 (≈ 4.72 µM) | 32 (≈ 75.5 µM) | HC50 at 1 h [9]: > 1000 µg/mL; selectivity ratio [10]: > 4000; hemolysis at 1 h [11]: < 5%; Activity (Staphylococcus aureus [12]): Active; inhibition (Staphylococcus aureus [13]): Active; Activity (Staphylococcus aureus [14]): Active; Activity (Staphylococcus aureus [15]): Active; Activity (Staphylococcus aureus [16]): Active; Activity (Staphylococcus aureus [17]): Active; Activity (Staphylococcus aureus [18]): Active; Activity (Staphylococcus aureus [19]): Active; Activity (Staphylococcus aureus [20]): 70%; Activity (Staphylococcus aureus [21]): Active; Activity (Staphylococcus aureus [22]): Active; Activity (Staphylococcus aureus [23]): Active; inhibition (Staphylococcus aureus [24]): Active; Activity (Staphylococcus aureus [25]): Active; Activity (L929): Non-Toxic
2 | CCOC(=O)Cn1cc(/C=N/Nc2ccc3c4c(cccc24)C(=O)N(C(CO)CO)C3=O)c2ccccc21 | 16 (≈ 31.1 µM) | 64 (≈ 124 µM) | 0.25 (≈ 0.486 µM) | 32 (≈ 62.2 µM) | 8 (≈ 15.5 µM) | 4 (≈ 7.77 µM) | 64 (≈ 124 µM) | 64 (≈ 124 µM) | 32 (≈ 62.2 µM) | 8 (≈ 15.5 µM) | 32 (≈ 62.2 µM) | HC50 at 1 h [9]: > 1000 µg/mL; selectivity ratio [10]: > 4000; hemolysis at 1 h [11]: < 5%; Activity (Staphylococcus aureus [12]): Active; inhibition (Staphylococcus aureus [13]): Active; Activity (Staphylococcus aureus [14]): Active; Activity (Staphylococcus aureus [15]): Active; Activity (Staphylococcus aureus [16]): Active; Activity (Staphylococcus aureus [17]): Active; Activity (Staphylococcus aureus [18]): Active; Activity (Staphylococcus aureus [19]): Active; Activity (Staphylococcus aureus [20]): 70%; Activity (Staphylococcus aureus [21]): Active; Activity (Staphylococcus aureus [22]): Active; Activity (Staphylococcus aureus [23]): Active; inhibition (Staphylococcus aureus [24]): Active; Activity (Staphylococcus aureus [25]): Active; Activity (L929): Non-Toxic
3 | O=C1c2cccc3c(N/N=C/c4ccccc4O)ccc(c23)C(=O)N1C(CO)CO | 2 (≈ 4.93 µM) | 16 (≈ 39.5 µM) | 16 (≈ 39.5 µM) | 32 (≈ 78.9 µM) | 16 (≈ 39.5 µM) | 4 (≈ 9.87 µM) | 32 (≈ 78.9 µM) | 64 (≈ 158 µM) | 64 (≈ 158 µM) | 64 (≈ 158 µM) | 32 (≈ 78.9 µM) | –
4 | O=C1c2cccc3c(N/N=C/c4ccc(Cl)cc4)ccc(c23)C(=O)N1C(CO)CO | 16 (≈ 37.7 µM) | 32 (≈ 75.5 µM) | 32 (≈ 75.5 µM) | 64 (≈ 151 µM) | 128 (≈ 302 µM) | 16 (≈ 37.7 µM) | 64 (≈ 151 µM) | 32 (≈ 75.5 µM) | 128 (≈ 302 µM) | 32 (≈ 75.5 µM) | 64 (≈ 151 µM) | –
5 | O=C1c2cccc3c(N/N=C/c4ccco4)ccc(c23)C(=O)N1C(CO)CO | 32 (≈ 84.3 µM) | 32 (≈ 84.3 µM) | 32 (≈ 84.3 µM) | 32 (≈ 84.3 µM) | 32 (≈ 84.3 µM) | 64 (≈ 169 µM) | 32 (≈ 84.3 µM) | 32 (≈ 84.3 µM) | 32 (≈ 84.3 µM) | 16 (≈ 42.2 µM) | 64 (≈ 169 µM) | –
6 | O=C1c2cccc3c(N/N=C/c4ccc([N+](=O)[O-])cc4)ccc(c23)C(=O)N1C(CO)CO | 64 (≈ 147 µM) | 1 (≈ 2.3 µM) | 2 (≈ 4.6 µM) | 2 (≈ 4.6 µM) | 64 (≈ 147 µM) | 32 (≈ 73.7 µM) | 32 (≈ 73.7 µM) | 16 (≈ 36.8 µM) | 64 (≈ 147 µM) | 16 (≈ 36.8 µM) | 32 (≈ 73.7 µM) | –
7 | O=C1c2cccc3c(N/N=C/c4ccccc4)ccc(c23)C(=O)N1C(CO)CO | 64 (≈ 164 µM) | 64 (≈ 164 µM) | 64 (≈ 164 µM) | 2 (≈ 5.14 µM) | 32 (≈ 82.2 µM) | 16 (≈ 41.1 µM) | 128 (≈ 329 µM) | 1 (≈ 2.57 µM) | 64 (≈ 164 µM) | 32 (≈ 82.2 µM) | 64 (≈ 164 µM) | –
8 | CCCCCCCCCCCCn1cc(/C=N/Nc2ccc3c4c(cccc24)C(=O)N(C(CO)CO)C3=O)c2ccccc21 | 64 (≈ 107 µM) | 64 (≈ 107 µM) | 8 (≈ 13.4 µM) | 32 (≈ 53.6 µM) | 64 (≈ 107 µM) | 64 (≈ 107 µM) | 32 (≈ 53.6 µM) | 128 (≈ 214 µM) | 64 (≈ 107 µM) | 32 (≈ 53.6 µM) | 64 (≈ 107 µM) | –
9 | O=C1c2cccc3c(N/N=C/c4ccc(O)c([N+](=O)[O-])c4)ccc(c23)C(=O)N1C(CO)CO | 64 (≈ 142 µM) | 16 (≈ 35.5 µM) | 4 (≈ 8.88 µM) | 4 (≈ 8.88 µM) | 8 (≈ 17.8 µM) | 4 (≈ 8.88 µM) | 32 (≈ 71 µM) | 32 (≈ 71 µM) | 32 (≈ 71 µM) | 8 (≈ 17.8 µM) | 32 (≈ 71 µM) | –
10 | N#Cc1ccc(/C=N/Nc2ccc3c4c(cccc24)C(=O)N(C(CO)CO)C3=O)cc1 | 32 (≈ 77.2 µM) | 8 (≈ 19.3 µM) | 4 (≈ 9.65 µM) | 8 (≈ 19.3 µM) | 2 (≈ 4.83 µM) | 2 (≈ 4.83 µM) | 32 (≈ 77.2 µM) | 32 (≈ 77.2 µM) | 32 (≈ 77.2 µM) | 4 (≈ 9.65 µM) | 16 (≈ 38.6 µM) | –
11 | COc1cc(/C=N/Nc2ccc3c4c(cccc24)C(=O)N(C(CO)CO)C3=O)ccc1O | 64 (≈ 147 µM) | 8 (≈ 18.4 µM) | 16 (≈ 36.7 µM) | 64 (≈ 147 µM) | 16 (≈ 36.7 µM) | 4 (≈ 9.19 µM) | 64 (≈ 147 µM) | 64 (≈ 147 µM) | 64 (≈ 147 µM) | 8 (≈ 18.4 µM) | 16 (≈ 36.7 µM) | –
12 | O=C1c2cccc3c(N/N=C/c4ccc(O)c(Br)c4)ccc(c23)C(=O)N1C(CO)CO | 8 (≈ 16.5 µM) | 4 (≈ 8.26 µM) | 16 (≈ 33 µM) | 64 (≈ 132 µM) | 64 (≈ 132 µM) | 16 (≈ 33 µM) | 64 (≈ 132 µM) | 64 (≈ 132 µM) | 64 (≈ 132 µM) | 16 (≈ 33 µM) | 32 (≈ 66.1 µM) | –
13 | O=C1c2cccc3c(N/N=C/c4ncc[nH]4)ccc(c23)C(=O)N1C(CO)CO | 64 (≈ 169 µM) | 64 (≈ 169 µM) | 32 (≈ 84.3 µM) | 64 (≈ 169 µM) | 128 (≈ 337 µM) | 64 (≈ 169 µM) | 16 (≈ 42.2 µM) | 8 (≈ 21.1 µM) | 64 (≈ 169 µM) | 4 (≈ 10.5 µM) | 64 (≈ 169 µM) | –
14 | O=C1c2cccc3c(N/N=C/c4ccc(O)c(O)c4O)ccc(c23)C(=O)N1C(CO)CO | 16 (≈ 36.6 µM) | 8 (≈ 18.3 µM) | 4 (≈ 9.14 µM) | 32 (≈ 73.2 µM) | 64 (≈ 146 µM) | 2 (≈ 4.57 µM) | 64 (≈ 146 µM) | 64 (≈ 146 µM) | 16 (≈ 36.6 µM) | 4 (≈ 9.14 µM) | 16 (≈ 36.6 µM) | –
15 | O=C1c2cccc3c(N/N=C/c4ccc(O)cc4O)ccc(c23)C(=O)N1C(CO)CO | 16 (≈ 38 µM) | 16 (≈ 38 µM) | 16 (≈ 38 µM) | 16 (≈ 38 µM) | 64 (≈ 152 µM) | 4 (≈ 9.49 µM) | 64 (≈ 152 µM) | 64 (≈ 152 µM) | 64 (≈ 152 µM) | 32 (≈ 75.9 µM) | 32 (≈ 75.9 µM) | –
